What all share (conditions): for inhibition at 1000 µM: 10^–3 M; for inhibition at 100 µM: 10^–4 M
Assay [1] has as its target AChE (Homo sapiens, UniProt P22303). The experiment in a line: biochemical. The procedure:
(§1) According to the modified Ellman approach outlined in our team’s earlier work, the AChE and BChE inhibitory activities of the obtained compounds were evaluated.[18]−[21]

The target of assay [2] is BChE (Homo sapiens, UniProt P06276). The experiment in a line: biochemical. The procedure: as §1
Chain of BChE (P06276 29-602): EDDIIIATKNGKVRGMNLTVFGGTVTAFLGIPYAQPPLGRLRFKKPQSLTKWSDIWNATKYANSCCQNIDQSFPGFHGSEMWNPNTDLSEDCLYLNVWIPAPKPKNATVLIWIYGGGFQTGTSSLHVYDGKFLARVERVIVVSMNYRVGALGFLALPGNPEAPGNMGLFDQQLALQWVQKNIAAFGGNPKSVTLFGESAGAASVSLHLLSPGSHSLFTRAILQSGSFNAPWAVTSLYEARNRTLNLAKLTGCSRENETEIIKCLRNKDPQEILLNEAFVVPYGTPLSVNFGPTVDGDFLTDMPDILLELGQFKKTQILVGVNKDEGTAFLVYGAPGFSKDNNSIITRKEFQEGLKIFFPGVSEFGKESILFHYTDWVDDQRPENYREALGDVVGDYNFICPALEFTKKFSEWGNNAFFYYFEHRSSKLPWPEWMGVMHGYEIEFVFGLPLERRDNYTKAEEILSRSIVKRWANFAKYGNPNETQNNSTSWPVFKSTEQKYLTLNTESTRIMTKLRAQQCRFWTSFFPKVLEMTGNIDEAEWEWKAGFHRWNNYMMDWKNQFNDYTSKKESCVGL
Assay [3] concerns the target T1, MAO-A (Homo sapiens, UniProt P21397).
T1 sequence (P21397 1-527): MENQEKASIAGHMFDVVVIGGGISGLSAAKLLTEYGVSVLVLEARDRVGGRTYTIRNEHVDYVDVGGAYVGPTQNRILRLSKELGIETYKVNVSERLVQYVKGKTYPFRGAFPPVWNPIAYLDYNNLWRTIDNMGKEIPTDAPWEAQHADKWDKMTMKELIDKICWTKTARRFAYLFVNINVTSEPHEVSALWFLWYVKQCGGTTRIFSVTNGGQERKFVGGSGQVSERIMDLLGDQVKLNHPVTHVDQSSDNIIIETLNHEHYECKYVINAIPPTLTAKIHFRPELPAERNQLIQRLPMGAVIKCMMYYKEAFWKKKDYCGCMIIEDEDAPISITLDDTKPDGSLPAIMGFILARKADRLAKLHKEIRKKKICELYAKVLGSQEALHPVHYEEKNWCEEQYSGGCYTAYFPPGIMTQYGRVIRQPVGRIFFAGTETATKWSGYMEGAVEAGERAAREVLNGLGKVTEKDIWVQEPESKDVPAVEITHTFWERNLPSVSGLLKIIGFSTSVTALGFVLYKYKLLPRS
Briefly: In vitro MAO-A inhibition assay (fluorometric). In kind it is biochemical.

Assay [4] concerns the target T2, MAO-B (Homo sapiens, UniProt P27338).
T2 sequence (P27338 1-520): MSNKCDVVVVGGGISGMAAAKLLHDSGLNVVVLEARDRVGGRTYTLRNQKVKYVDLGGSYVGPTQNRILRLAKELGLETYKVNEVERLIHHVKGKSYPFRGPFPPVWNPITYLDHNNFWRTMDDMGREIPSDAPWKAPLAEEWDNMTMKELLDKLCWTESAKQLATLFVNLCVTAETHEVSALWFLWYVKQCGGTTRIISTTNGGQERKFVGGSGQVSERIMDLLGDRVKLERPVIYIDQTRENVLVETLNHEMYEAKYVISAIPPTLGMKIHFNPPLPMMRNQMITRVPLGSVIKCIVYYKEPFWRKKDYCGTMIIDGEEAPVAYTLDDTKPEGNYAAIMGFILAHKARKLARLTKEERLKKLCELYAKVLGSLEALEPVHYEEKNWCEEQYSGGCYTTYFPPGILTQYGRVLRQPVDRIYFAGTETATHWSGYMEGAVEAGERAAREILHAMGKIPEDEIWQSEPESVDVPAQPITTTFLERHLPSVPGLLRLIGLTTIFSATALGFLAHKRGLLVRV
Briefly: In vitro MAO-B inhibition assay (fluorometric). In kind it is biochemical.

As usually defined, the inhibition is the change of the read-out against control, counted positive when it falls.

Chain of AChE (P22303 32-614): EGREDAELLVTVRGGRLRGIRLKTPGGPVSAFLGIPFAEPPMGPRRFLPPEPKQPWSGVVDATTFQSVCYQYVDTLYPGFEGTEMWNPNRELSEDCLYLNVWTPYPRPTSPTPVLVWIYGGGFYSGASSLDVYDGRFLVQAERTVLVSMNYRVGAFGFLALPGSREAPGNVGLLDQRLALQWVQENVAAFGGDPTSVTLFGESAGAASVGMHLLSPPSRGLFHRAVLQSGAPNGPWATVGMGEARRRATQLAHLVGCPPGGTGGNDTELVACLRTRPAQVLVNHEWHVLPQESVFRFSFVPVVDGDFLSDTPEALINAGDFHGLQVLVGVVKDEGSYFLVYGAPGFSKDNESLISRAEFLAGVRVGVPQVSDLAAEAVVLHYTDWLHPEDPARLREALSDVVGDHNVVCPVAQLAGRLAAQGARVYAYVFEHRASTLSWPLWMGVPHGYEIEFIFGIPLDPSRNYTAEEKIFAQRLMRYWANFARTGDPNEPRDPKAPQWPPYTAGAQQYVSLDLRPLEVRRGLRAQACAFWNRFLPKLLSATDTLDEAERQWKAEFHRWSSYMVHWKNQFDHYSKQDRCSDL

As to `COc1ccc2c(c1)C/C(=C\c1ccc(NC(=O)CN3CCN(C)CC3)cc1)C2=O` [D1], the inhibition at 1000 µM in assay [1] amounted to 83.2 ± 1.09%; in assay [2], 94.6 ± 0.972%; in assay [3] it was 59 ± 0.598%; in assay [4], 65.12 ± 0.623%. The inhibition at 100 µM in assay [1] amounted to 47.3 ± 0.887%; in assay [2] it was 32.8 ± 0.455%; in assay [3], 21.4 ± 0.424%; in assay [4], 38.7 ± 0.512%.

With `COc1ccc2c(c1)C(=O)/C(=C/c1ccc(NC(=O)CN3CCN(C)CC3)cc1)C2` [D2], the inhibition at 1000 µM stood at 50.3 ± 0.731% in assay [1], 61.3 ± 0.18% in assay [2], 46.6 ± 0.853% in assay [3] and 75.3 ± 0.987% in assay [4]. Further, the inhibition at 100 µM was found to be 42.9 ± 0.601% in assay [1], 23.6 ± 0.226% in assay [2], 27.7 ± 0.909% in assay [3] and 45.3 ± 0.859% in assay [4].

Regarding `COc1cc2c(cc1OC)C(=O)/C(=C/c1ccc(NC(=O)CN3CCN(C)CC3)cc1)C2` [D3], the inhibition at 1000 µM in assay [1] worked out at 99.3 ± 2.34%; in assay [2], 98.1 ± 1.57%; in assay [3], 57.5 ± 0.875%; in assay [4] it was 67.2 ± 0.751%. For the same compound, the inhibition at 100 µM was 44.1 ± 0.906% in assay [1], 40.4 ± 0.548% in assay [2], 26.5 ± 0.365% in assay [3] and 36.2 ± 0.452% in assay [4].

For the compound `CCN1CCN(CC(=O)Nc2ccc(/C=C3\Cc4cc(OC)ccc4C3=O)cc2)CC1` [D4], the inhibition at 1000 µM in assay [1] came to 74.5 ± 1.02%; in assay [2], 92.9 ± 2.41%; in assay [3], 67.6 ± 1.06%; in assay [4], 77.1 ± 1.06%. Also, the inhibition at 100 µM was found to be 38.2 ± 0.479% in assay [1], 21.21 ± 0.11% in assay [2], 20.9 ± 0.455% in assay [3] and 36.3 ± 0.496% in assay [4].

For `CCN1CCN(CC(=O)Nc2ccc(/C=C3\Cc4ccc(OC)cc4C3=O)cc2)CC1` [D5], the inhibition at 1000 µM in assay [1] was 38.6 ± 0.518%; in assay [2], 55.6 ± 549%; in assay [3] it was 66.6 ± 1.49%; in assay [4], 75.6 ± 1.08%. For the same compound, the inhibition at 100 µM in assay [1] came out at 31.7 ± 0.499%; in assay [2] it was 26.3 ± 0.211%; in assay [3], 24.7 ± 0.514%; in assay [4], 44.4 ± 0.627%.

As to `CCN1CCN(CC(=O)Nc2ccc(/C=C3\Cc4cc(OC)c(OC)cc4C3=O)cc2)CC1` [D6], the inhibition at 1000 µM was 97.5 ± 2.23% in assay [1], 96.51 ± 0.317% in assay [2], 93.27 ± 0.309% in assay [3] and 95.5 ± 1.25% in assay [4]. The inhibition at 100 µM in assay [1] is 31.3 ± 0.697%; in assay [2] it was 32.8 ± 0.908%; in assay [3] it was 33.9 ± 1.13%; in assay [4] it was 48.6 ± 1.13%.

Turning to `C=CCN1CCN(CC(=O)Nc2ccc(/C=C3\Cc4cc(OC)ccc4C3=O)cc2)CC1` [D7], the inhibition at 1000 µM in assay [1] is 61.3 ± 1.01%; in assay [2], 56.8 ± 0.971%; in assay [3], 61.89 ± 0.618%; in assay [4], 66.33 ± 0.557%. The inhibition at 100 µM came to 34.8 ± 0.472% in assay [1], 21.2 ± 0.378% in assay [2], 41.4 ± 0.808% in assay [3] and 47.9 ± 0.952% in assay [4].

In the case of `C=CCN1CCN(CC(=O)Nc2ccc(/C=C3\Cc4ccc(OC)cc4C3=O)cc2)CC1` [D8], the inhibition at 1000 µM in assay [1] came out at 51 ± 0.995%; in assay [2], 51 ± 0.667%; in assay [3], 57.2 ± 1.34%; in assay [4], 78.6 ± 1.15%. Further, the inhibition at 100 µM in assay [1] stood at 42 ± 0.661%; in assay [2], 28.4 ± 0.409%; in assay [3], 26.6 ± 0.455%; in assay [4], 46.2 ± 0.547%.

Take `C=CCN1CCN(CC(=O)Nc2ccc(/C=C3\Cc4cc(OC)c(OC)cc4C3=O)cc2)CC1` [D9]: the inhibition at 1000 µM in assay [1] was 81.3 ± 1.13%; in assay [2] it was 82.8 ± 1.03%; in assay [3], 32.6 ± 0.389%; in assay [4], 58.63 ± 0.523%. For the same compound, the inhibition at 100 µM in assay [1] is 45.2 ± 0.996%; in assay [2], 28.2 ± 0.679%; in assay [3], 24.5 ± 0.459%; in assay [4], 34.8 ± 0.384%.

For `C#CCN1CCN(CC(=O)Nc2ccc(/C=C3\Cc4cc(OC)ccc4C3=O)cc2)CC1` [D10], the inhibition at 1000 µM in assay [1] came to 71.3 ± 1.01%; in assay [2] it was 41.3 ± 0.755%; in assay [3] it was 48.9 ± 0.966%; in assay [4], 68.96 ± 0.578%. In addition, the inhibition at 100 µM in assay [1] was 29.4 ± 0.587%; in assay [2] it was 26.6 ± 1.35%; in assay [3] it was 22.4 ± 0.662%; in assay [4], 42.6 ± 0.652%.

Turning to `C#CCN1CCN(CC(=O)Nc2ccc(/C=C3\Cc4ccc(OC)cc4C3=O)cc2)CC1` [D11], the inhibition at 1000 µM was found to be 66.6 ± 0.985% in assay [1], 91.7 ± 1.21% in assay [2], 77 ± 1.59% in assay [3] and 79.6 ± 1.13% in assay [4]. For the same compound, the inhibition at 100 µM in assay [1] amounted to 49.9 ± 0.809%; in assay [2], 33.9 ± 0.569%; in assay [3], 25.5 ± 0.52%; in assay [4] it was 35.6 ± 0.488%.

In the case of `C#CCN1CCN(CC(=O)Nc2ccc(/C=C3\Cc4cc(OC)c(OC)cc4C3=O)cc2)CC1` [D12], the inhibition at 1000 µM in assay [1] stood at 96.5 ± 2.7%; in assay [2], 98.4 ± 1.79%; in assay [3], 95.76 ± 0.49%; in assay [4], 96.2 ± 1.34%. The inhibition at 100 µM stood at 49.7 ± 0.988% in assay [1], 48.8 ± 0.529% in assay [2], 45.1 ± 0.466% in assay [3] and 49 ± 0.623% in assay [4].

Turning to `COCCN1CCN(CC(=O)Nc2ccc(/C=C3\Cc4cc(OC)ccc4C3=O)cc2)CC1` [D13], the inhibition at 1000 µM was 71.2 ± 1.07% in assay [1], 90.1 ± 1.46% in assay [2], 82.7 ± 1.21% in assay [3] and 84.6 ± 1.11% in assay [4]. For the same compound, the inhibition at 100 µM worked out at 43 ± 0.998% in assay [1], 23.9 ± 0.934% in assay [2], 35.5 ± 0.623% in assay [3] and 44.6 ± 0.557% in assay [4].

For the compound `COCCN1CCN(CC(=O)Nc2ccc(/C=C3\Cc4ccc(OC)cc4C3=O)cc2)CC1` [D14], the inhibition at 1000 µM in assay [1] came to 44.2 ± 0.999%; in assay [2], 73.7 ± 1.51%; in assay [3] it was 48.5 ± 0.749%; in assay [4] it was 69 ± 0.847%. In addition, the inhibition at 100 µM in assay [1] is 36.3 ± 0.664%; in assay [2] it was 33 ± 0.721%; in assay [3], 27.95 ± 0.243%; in assay [4], 39.3 ± 0.652%.

Take `COCCN1CCN(CC(=O)Nc2ccc(/C=C3\Cc4cc(OC)c(OC)cc4C3=O)cc2)CC1` [D15]: the inhibition at 1000 µM is 91.6 ± 2.56% in assay [1], 94.6 ± 1.6% in assay [2], 70.52 ± 0.536% in assay [3] and 80.2 ± 1.46% in assay [4]. Besides, the inhibition at 100 µM stood at 43.4 ± 0.877% in assay [1], 43.5 ± 0.966% in assay [2], 20.3 ± 0.412% in assay [3] and 40.1 ± 0.508% in assay [4].

Take `COc1ccc2c(c1)C/C(=C\c1ccc(NC(=O)CN3CCN(CCO)CC3)cc1)C2=O` [D16]: the inhibition at 1000 µM in assay [1] stood at 88 ± 1.09%; in assay [2] it was 87.63 ± 0.618%; in assay [3] it was 65.8 ± 0.779%; in assay [4], 75.6 ± 1.1%. Further, the inhibition at 100 µM in assay [1] worked out at 42.6 ± 1.85%; in assay [2] it was 23.6 ± 0.448%; in assay [3], 22 ± 0.233%; in assay [4], 42.9 ± 0.629%.

`COc1ccc2c(c1)C(=O)/C(=C/c1ccc(NC(=O)CN3CCN(CCO)CC3)cc1)C2` [D17]: the inhibition at 1000 µM came to 73.7 ± 1.06% in assay [1], 75.532 ± 0.061% in assay [2], 82.45 ± 0.529% in assay [3] and 84.6 ± 1.04% in assay [4]. In addition, the inhibition at 100 µM amounted to 48.1 ± 0.669% in assay [1], 21.1 ± 0.804% in assay [2], 34.4 ± 0.508% in assay [3] and 45.4 ± 0.669% in assay [4].

As for `COc1cc2c(cc1OC)C(=O)/C(=C/c1ccc(NC(=O)CN3CCN(CCO)CC3)cc1)C2` [D18], the inhibition at 1000 µM was 94.7 ± 1.97% in assay [1], 99.21 ± 0.887% in assay [2], 63.8 ± 0.683% in assay [3] and 75.6 ± 1.2% in assay [4]. Besides, the inhibition at 100 µM was 45.3 ± 1.01% in assay [1], 41.8 ± 0.766% in assay [2], 28.39 ± 0.097% in assay [3] and 47.34 ± 0.457% in assay [4].

The record behind these values is article PMC9774391 (ACS Omega, 2022).
